Source: patent US11999732B2, “P2X3 receptor antagonists” (RECORDATI INDUSTRIA CHIMICA E FARMACEUTICA SPA, priority 2018, dated 2024)
Read-outs that look alike come from different tables or passages of the source.

Target: T1, human P2X3 receptor (Homo sapiens, UniProt P56373)
T1 construct: expressed in transfected cells; host or cells: CHO-K1
T1 sequence (P56373 1-397): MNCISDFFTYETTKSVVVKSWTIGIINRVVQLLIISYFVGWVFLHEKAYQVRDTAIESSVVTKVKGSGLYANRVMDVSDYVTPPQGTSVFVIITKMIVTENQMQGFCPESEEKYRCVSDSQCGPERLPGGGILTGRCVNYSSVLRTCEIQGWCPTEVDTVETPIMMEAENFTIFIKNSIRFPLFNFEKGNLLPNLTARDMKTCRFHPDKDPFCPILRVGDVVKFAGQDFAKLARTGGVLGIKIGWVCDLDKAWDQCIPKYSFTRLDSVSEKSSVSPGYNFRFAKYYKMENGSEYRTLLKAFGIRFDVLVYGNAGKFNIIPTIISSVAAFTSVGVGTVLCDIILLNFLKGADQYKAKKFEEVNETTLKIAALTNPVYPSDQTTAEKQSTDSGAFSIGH
Assay: Calcium luminescence (photoprotein) assay in CHO-K1 cells co-expressing human P2X3 receptor, α,β-Met-ATP stimulation, FLEXSTATION readout
Type: cell-based
Procedure: The assay for the human purinergic P2X3 receptor has been adapted to the internal screening instrumentation using the FLEXSTATION as reader and a photoprotein as luminescent readout. The assay consists of CHO-K1 cells recombinantly co-expressing the human P2rx3 receptor and a Ca^2+ sensitive photoprotein. Cells are maintained in DMEM F-12 (1:1) mixture (LONZA cat. no BE04-687F/U1) supplemented with 9 mL of 100 mM Sodium Pyruvate (LONZA cat. no BE13-115E), 29 mL of 7.5% Sodium Bicarbonate (LONZA cat. no: BE17-613E), 5.5 mL of 1 M Hepes (LONZA cat. no BE17-737E), 5 mL of 100× Penicillin/Streptomycin (LONZA cat. no DE17-602E) and 50 mL of Fetal Bovine Serum (Sigma cat. no F7524), 1 mg/mL G418 (Sigma cat. no G8168) and 5 µg/ml puromycin (Sigma cat. no P9620). Standard propagation conditions consist of seeding in a P75 flask twice a week, recovering about 20×10^6 cells, corresponding to about 80% confluency. Cells were seeded into black-walled clear bottom 96 well plates at a density of 40000 cells/well in a Tyrode's buffer (Standard Tyrode's buffer: in house solution, 130 mM NaCl, 5 mM KCl, 2 mM CaCl2, 5 mM NaHCO3, 1 mM MgCl2, 20 mM HEPES, pH 7.4). After 24 h the culture medium was replaced with 200 μL/well of coelenterazine in Tyrode's buffer (Coelenterazine: from BIOSYNTH (cat. no C-7001). 10 mM stock solution was prepared in DMSO and glutathione and stored at −20° C.). The plates were incubated for 4 hours at 37° C., and injected with 10 μL/well of test compounds at 25× concentration in Tyrode's buffer. After 4 minutes a second injection of 50 μL/well of 5× α,β-Met-ATP in Tyrode's buffer (α,β-Met-ATP: from Tocris (cat. no 3209), was dissolved at 100 mM in water and stored in aliquots at −20° C.) was performed and the signal of the emitted luminescence was recorded by FLEXSTATION III (Molecular Devices).
The inhibition curves of the tested compounds at cloned P2X3 receptor were determined by nonlinear regression analysis using software Prism 4.0 (Graphpad, San Diego, Calif.). The IC50 values and pseudo-Hill slope coefficients were estimated by the program.

[1] = Table 7, human P2X3 receptor antagonist activity, CHO-K1 cells, α,β-Met-ATP, read-out: h-P2X3 IC50
[2] = Table 9, human P2X3 receptor antagonist activity, CHO-K1 cells, α,β-Met-ATP, read-out: h-P2X3 IC50
[3] = Table 6, human P2X3 receptor antagonist activity, CHO-K1 cells, α,β-Met-ATP, read-out: h-P2X3 IC50
[4] = Table 8, human P2X3 receptor antagonist activity, CHO-K1 cells, α,β-Met-ATP, read-out: h-P2X3 IC50

Structure (SMILES)	IC50 [3] [nM]	other results
CC(C)Cc1cn2c(=O)n(Cc3c(F)cc(Cl)cc3F)c3cc(N4CCOCC4)cnc3c2n1 [Example 75, 6-(4-chloro-2,6-difluorobenzyl)-2-(2-methylpropyl)-8-(morpholin-4-yl)imidazo[1,2-c]pyrido[2,3-e]pyrimidin-5(6H)-one]		IC50 [1]: 3510 nM
CCN(CC)c1cnc2c(c1)N(Cc1ccc(OC)cc1)C(=O)N1C2=NC(=O)C1C(C)(C)C (stereo not drawn) [Example 165, 3-tert-butyl-8-(diethylamino)-6-(4-methoxybenzyl)imidazo[1,2-c]pyrido[2,3-e]pyrimidine-2,5(3H,6H)-dione]		IC50 [2]: 702 nM
O=C1N(Cc2ccc(Cl)cc2)c2cc(N3CCOCC3)cnc2C2=NCC(C3CCCCC3)N12 (stereo not drawn) [Example 26, 6-(4-chlorobenzyl)-3-cyclohexyl-8-(morpholin-4-yl)-2,6-dihydroimidazo[1,2-c]pyrido[2,3-e]pyrimidin-5(3H)-one]	469	
COc1ccc(CN2C(=O)N3CC(c4ccccc4)N=C3c3ncc(N4CCOCC4)cc32)cc1 (stereo not drawn) [Example 28, 6-(4-methoxybenzyl)-8-(morpholin-4-yl)-2-phenyl-2,6-dihydroimidazo[1,2-c]pyrido[2,3-e]pyrimidin-5(3H)-one]	375	
O=C1N2CC(C3CC3)N=C2c2ncc(N3CCOCC3)cc2N1Cc1ccc(Cl)cc1 (stereo not drawn) [Example 10, 6-(4-chlorobenzyl)-2-cyclopropyl-8-(morpholin-4-yl)-2,6-dihydroimidazo[1,2-c]pyrido[2,3-e]pyrimidin-5(3H)-one]	241	
COc1ccc(CN2C(=O)N3C(=NCC3C(C)C)c3ncc(N4CCOCC4)cc32)cc1 (stereo not drawn) [Example 1, 6-(4-methoxybenzyl)-8-(morpholin-4-yl)-3-(propan-2-yl)-2,6-dihydroimidazo[1,2-c]pyrido[2,3-e]pyrimidin-5(3H)-one]	5220	
COc1ccc(Cn2c(=O)n3cc(CC(C)C)nc3c3ncc(N4CCOCC4)cc32)cc1 [Example 78, 6-(4-methoxybenzyl)-2-(2-methylpropyl)-8-(morpholin-4-yl)imidazo[1,2-c]pyrido[2,3-e]pyrimidin-5(6H)-one]		IC50 [1]: 631 nM
COc1ccc(CN2C(=O)N3C(=NC(=O)C3C(C)C)c3ncc(N4CCOCC4)cc32)cc1 (stereo not drawn) [Example 164, 6-(4-methoxybenzyl)-8-(morpholin-4-yl)-3-(propan-2-yl)imidazo[1,2-c]pyrido[2,3-e]pyrimidine-2,5(3H,6H)-dione]		IC50 [2]: 188 nM
COc1ccc(CN2C(=O)N3CC(COC(C)(C)C)N=C3c3ncc(N4CCOCC4)cc32)cc1 (stereo not drawn) [Example 57, 2-(tert-butoxymethyl)-6-(4-methoxybenzyl)-8-(morpholin-4-yl)-2,6-dihydroimidazo[1,2-c]pyrido[2,3-e]pyrimidin-5(3H)-one]	3280	
O=C1N2CC(c3ccccc3)N=C2c2ncc(N3CCOCC3)cc2N1Cc1ccc(Cl)cc1 (stereo not drawn) [Example 36, 6-(4-chlorobenzyl)-8-(morpholin-4-y1)-2-phenyl-2,6-dihydroimidazo[1,2-c]pyrido[2,3-e]pyrimidin-5(3H)-one]	245	
COc1cc(CN2C(=O)N3C(=NC(C)C3C)c3ncc(N4CCOCC4)cc32)cc(OC)c1 (stereo not drawn) [Example 8, 6-(3,5-dimethoxybenzyl)-2,3-dimethyl-8-(morpholin-4-y1)-2,6-dihydroimidazo[1,2-c]pyrido[2,3-e]pyrimidin-5(3H)-one]	636	
COc1cc(Cn2c(=O)n3cc(CC(C)C)nc3c3ncc(N4CCN(C(=O)CO)CC4)cc32)cc(OC)c1 [Example 80, 6-(3,5-dimethoxybenzyl)-8-[4-(hydroxyacetyl)piperazin-1-y1]-2-(2-methylpropyl)imidazo[1,2-c]pyrido[2,3-e]pyrimidin-5(6H)-one]		IC50 [1]: 1530 nM
COc1ccc(CN2C(=O)N3CC(C4CCCCC4)N=C3c3ncc(N4CCOCC4)cc32)cc1 (stereo not drawn) [Example 23, 2-cyclohexyl-6-(4-methoxybenzyl)-8-(morpholin-4-yl)-2,6-dihydroimidazo[1,2-c]pyrido[2,3-e]pyrimidin-5(3H)-one]	506	
Cc1ncccc1Cc1nnc2c3ncc(N4CCOCC4)cc3n(Cc3ccc(Cl)cc3)c(=O)n12 [Example 106, 6-(4-chlorobenzyl)-3-[(2-methylpyridin-3-yl)methyl]-8-(morpholin-4-yl)pyrido[2,3-e][1,2,4]triazolo[4,3-c]pyrimidin-5(6H)-one]		IC50 [1]: 40.6 nM
CC(C)NC(=O)Cc1nnc2c3ncc(N4CCOCC4)cc3n(Cc3ccc(Cl)cc3)c(=O)n12 [Example 103, 2-[6-(4-chlorobenzyl)-8-(morpholin-4-y1)-5-oxo-5,6-dihydropyrido[2,3-e][1,2,4]triazolo[4,3-c]pyrimidin-3-yl]-n-(propan-2-yl)acetamide]		IC50 [1]: 811 nM
CCC1CN2C(=O)N(Cc3ccc(Cl)cc3)c3cc(N4CCOCC4)cnc3C2=N1 (stereo not drawn) [Example 50, 6-(4-chlorobenzyl)-2-ethyl-8-(morpholin-4-y1)-2,6-dihydroimidazo[1,2-c]pyrido[2,3-e]pyrimidin-5(3H)-one]	280	
COc1ccc(CN2C(=O)N3CC(CC(C)C)N=C3c3ncc(N4CCOCC4)cc32)cc1 (stereo not drawn) [Example 37, 6-(4-methoxybenzyl)-2-(2-methylpropyl)-8-(morpholin-4-yl)-2,6-dihydroimidazo[1,2-c]pyrido[2,3-e]pyrimidin-5(3H)-one]	678	
COCC1CN(c2cnc3c(c2)c(Cc2cc(OC)cc(OC)c2)nn2c(CC(C)C)nnc32)C1 [Example 121, 6-(3,5-dimethoxybenzyl)-8-[3-(methoxymethyl)azetidin-1-yl]-3-(2-methylpropyl)pyrido[2,3-d][1,2,4]triazolo[4,3-b]pyridazine]		IC50 [4]: 1150 nM
Cc1ccc(Cc2nn3c(C(C)C)nnc3c3ncc(N4CCOCC4)cc23)cc1 [Example 115, 6-(4-methylbenzyl)-8-(morpholin-4-yl)-3-(propan-2-yl)pyrido[2,3-d][1,2,4]triazolo[4,3-b]pyridazine]		IC50 [4]: 437 nM
CC1(c2nnc3c4ncc(N5CCOCC5)cc4n(Cc4ccc(Cl)cc4)c(=O)n23)CC1 [Example 102, 6-(4-chlorobenzyl)-3-(1-methylcyclopropyl)-8-(morpholin-4-yl)pyrido[2,3-e][1,2,4]triazolo[4,3-c]pyrimidin-5(6H)-one]		IC50 (running text b1263, read-out: inhibition (human P2X3 receptor)): 25.5 nM

Further lines, with some results ahead:

IC50 [3] [nM]	Structure (SMILES)	other results
731	CC(C)C1CN2C(=O)N(Cc3ccc(Cl)cc3)c3cc(N4CCC(O)CC4)cnc3C2=N1 (stereo not drawn) [Example 51, 6-(4-chlorobenzyl)-8-(4-hydroxypiperidin-1-yl)-2-(propan-2-yl)-2,6-dihydroimidazo[1,2-c]pyrido[2,3-e]pyrimidin-5(3H)-one]	
345	COc1ccc(CN2C(=O)N3CC(CC(F)(F)F)N=C3c3ncc(N4CCOCC4)cc32)cc1 (stereo not drawn) [Example 56, 6-(4-methoxybenzyl)-8-(morpholin-4-y1)-2-(2,2,2-trifluoroethyl)-2,6-dihydroimidazo[1,2-c]pyrido[2,3-e]pyrimidin-5(3H)-one]	
109	CC(C)CC1C(=O)N=C2c3ncc(N4CCOCC4)cc3N(Cc3ccc(Cl)cc3)C(=O)N21 (stereo not drawn) [Example 64, 6-(4-chlorobenzyl)-3-(2-methylpropyl)-8-(morpholin-4-yl)imidazo[1,2-c]pyrido[2,3-e]pyrimidine-2,5(3H,6H)-dione]	
2070	CCC1CN=C2c3ncc(N4CCOCC4)cc3N(Cc3ccc(OC)cc3)C(=O)N21 (stereo not drawn) [Example 53, 3-ethyl-6-(4-methoxybenzyl)-8-(morpholin-4-y1)-2,6-dihydroimidazo[1,2-c]pyrido[2,3-e]pyrimidin-5(3H)-one]	
